Blank lines part the entries; values can stand above or below the molecule they belong to. Non-standard residues stand in square brackets, D forms with d. Residues, ends and D or L forms follow the SMILES beside them. No end group written: not given here. *: point of attachment. pY = N[C@@H](Cc1ccc(OP(=O)(O)O)cc1)C(=O)O; NBD = O=[N+]([O-])c1ccc(*)c2nonc12; βAla = NCCC(=O)O
Experiments:
[1] = Enzymatic self-assembly in vitro, nanostructures by TEM; assay type: physicochemical; conditions: for diameters of nanofibers: after dephosphorylation at 400 μM by ALP (0.5 U/mL)
Method: TEM Sample Preparation: After placing 5 μL samples on 400 mesh copper grids coated with continuous thick carbon film (˜35 nm) which is glowed discharged, we washed the grid with ddH2O and UA (uranyl acetate). The sample loaded grid was stained with the UA. The residual UA was removed by filter paper and then dried in air. TEM images were obtained with Morgagni 268 transmission electron microscope.
After obtaining all the precursors, their behaviors for EISA were evaluated in vitro using transmission electron microscopes (TEM) to examine the nanostructures formed before and after the ALP catalyzed dephosphorylation of precursors 5, 7, and 9. […] The critical micelle concentration (CMC) of 5 is 86.1 μM. […] The CMC of 6 is 8.1 μM. Unlike the case of 5, dephosphorylation of 7 or 9 at 400 μM by ALP (0.5 U/mL) produces nanofibers with the diameters of 6±2 nm or 9±2 nm, whose CMC is 87.4 μM or 25.8 μM, respectively.
A key requirement for selectively eliminating iPSCs by EISA is that the L-peptide nanoribbons only form on and in iPSCs, which overexpress ALP, but not on and in the differentiated cells that express normal level of ALP. That is, L-peptide nanoribbons should only rapidly form at high level of ALP, but not at normal level of ALP. […] Thus, after assessing the level of ALP expression in iPSCs, it should be possible to optimizing the initial concentration of a peptide and the time of dephosphorylation, to promote EISA that selectively targets iPSCs.

[2] = Degradation in HS-5 cell lysate (LC-MS)
[3] = Critical micelle concentration (CMC) measurement with pyrene probe; assay type: physicochemical; conditions: for CMC of the nanofiber-forming product of dephosphorylation: product after dephosphorylation at 400 μM by ALP (0.5 U/mL)
Method: Critical Micelle Concentration ((MC) Measurement: The CMCs were determined using pyrene as the fluorescent probe. Different concentrations of compounds were prepared in pyrene-saturate solutions. The fluorescence spectra of pyrene solutions with different concentration compounds were obtained. The intensity ratio of 378 nm/393 nm (I378/I393) was determined by a Synergy H1 hybrid multi-mode microplate reader. Plot I378/I393 against the concentrations of compounds. The concentration at the turning point is the CMC.

iPSCs [4] = assay: Cell viability of iPSCs (trypan blue); assay type: cell-based, human; conditions: 400 μM, 2 h
Method: Cell Culture: Human induced pluripotent stem cell line A21 was generated from human normal dermal fibroblasts by using the StemRNA™-NM Reprogramming kit (Stemgent, Cat #00-0076). hiPSCs were routinely cultured and passaged on 6-well plates coated with 0.25 μg/cm^2 iMatrix-511 (Recombinant Laminin-511) (ReproCell) with NutriStem XF/FFTM medium (Biological Industries). HS-5 cell line and HEK293 cell line were purchased from American Type Culture Collection (ATCC, USA). HS-5 cells were cultured in Dulbecco's Modified Eagle Medium (DMEM) supplemented with 10% fetal bovine serum (FBS), 100 U/mL penicillin and 100 μg/mL streptomycin. HEK293 cells were cultured in Minimal Essential Medium (MEM) supplemented with 10% fetal bovine serum (FBS), 100 U/mL penicillin and 100 μg/mL streptomycin. All cells were maintained at 37° C. in a humidified atmosphere of 5% CO2.
Cell Viability of iPSC's: iPSCs were plated in 6-well plates and incubated for 24 to 48 hours, then media were replaced with fresh one (2 ml) supplemented with PBS (control) 5 (200 μM, 300 μM, and 400 μM), 7 (400 μM) or 9 (400 μM), and incubated for 2 hours. Media were removed and cells were rinsed with PBS once, fresh normal cultural media were added and incubated for 30 min. All cells were collected and stained with trypan blue, live cells were counted using Cellometer Auto 2000 (Nexcelom Bioscience). Data were obtained by from three independent wells (n=3).

ALP = assay: Dephosphorylation rate measurement (LC-MS); conditions: for conversion ratio to dephosphorylated peptide / half-life at 100 μM / half-life at 200 μM: 0.5 U/mL ALP; for conversion ratio to dephosphorylated peptide: after 5 h of incubation; for half-life at 400 μM / half-life at 100 μM / half-life at 200 μM: alkaline phosphatase (ALP) in PBS; for half-life at 100 μM / half-life at 200 μM: half-life of dephosphorylation
Method: The reaction mixtures were analyzed with LC-MS.
Thus, the conversion of the phosphopentapeptides to their corresponding peptides was examined over time.

iPSCs [5] = assay: CLSM imaging of peptide assemblies in iPSCs; assay type: cell-based, human; conditions: 400 μM, 2 hours
Method: Confocal Laser Scanning Microscopy (CLSM) Imaging: For live cell imaging, cells in exponential growth phase were seeded in a confocal dish (3.5 cm) at 1.0×10^5 cells per dish and then incubated in incubator for 24 h. We removed culture medium, and added fresh medium containing precursors for different time points. After removing the medium and washing the cells with live cell imaging solution (2 mL×2), the cells were used for CLSM imaging. For time-dependent live cell imaging, cells in exponential growth phase were seeded in a confocal dish (3.5 cm) at 1.0×10^5 cells per dish and then incubated in incubator for 24 h. After removing culture medium, we treated the cells with 1 mL of Hoechst 33342 (1 μg mL^−1) for 10 minutes. After being washed with culture medium (2 mL×2), the cells were incubated with fresh medium containing precursor 5 in a Tokai Hit stage top incubator (STXF-WSKMX-SET) to be used for CLSM imaging. All the CLSM images were obtained using Zeiss LSM 880 confocal microscopy at the lens of 63× with oil. The lasers used are 405 nm and 488 nm.
Because the fluorescence of NBD increases drastically from unassembled to assembled state, confocal laser scanning microscopy (CLSM) was suitable to reveal the cellular location of the peptide assemblies formed after dephosphorylation catalyzed by ALP. […] The blackness in nuclei overlaps well with the strong fluorescence. […] The results confirms that the nucleus-targeting mainly originates from the ALP catalyzed dephosphorylation.
To trace the dynamics of the formation and distribution of 5 inside iPSC cells, time-lapse CLSM was also used to image the changes of the fluorescence in the iPSCs incubated by 5 (400 μM). Using one cell as a representative case, after 6 minutes incubation fluorescent puncta appear on the membrane, likely originating from the aggregates of assemblies of 5 and those of 6 generated by the dephosphorylation catalyzed by ALP. […] After 24 minutes incubation, fluorescence starts to grow in the cytoplasm. Considering the LLLLY motif in SEQ ID NO: 2 constitutes the transmembrane domains of 18 human membrane proteins, it is possible that the affinity of 5 or 6 to membrane allows the assemblies of the mixture of 5 and 6 to interact with cellular membranes, which then facilitates nuclear localization. At about 28 minutes of incubation, fluorescence appears in the nucleus. Moreover, the nuclei shrink after the assemblies emerge in the nuclei. In addition, the nuclei also show nuclear blebbing (Stephens et al., “Chromatin Histone Modifications and Rigidity Affect Nuclear Morphology Independent of Lamins,” Mol. Biol. Cell 29(2):220-233 (2018), which is hereby incorporated by reference in its entirety). The shrinkage of nuclei and nuclear blebbing likely associate with iPSC death. To further examine the dynamics of EISA-formed peptide assemblies in iPSCs over different time, the increase of fluorescence in two cells over 2 hours was monitored; their nuclei, A and B, are shown in FIG. 10A. […] The mean fluorescent intensity in Nucleus A starts to increase at 28 minutes and levels off after 110 minutes. For Nucleus B, the mean fluorescent intensity keeps increasing from 38 minutes. The increases of the fluorescence in the nuclei and nucleoli are synchronous. […] The assemblies inside the nuclei or near nuclear membrane induce nuclear blebbing and shrinkage of nuclei, which likely contributes to the cell death.

Molecule: 4: de-phosphorylated form of 3: NBD-bAla-Leu-Leu-Leu-Tyr (SEQ ID NO: 1) ({NBD}-[βAla]LLLY) [compound 4]
- self-assembling ability ([1]; formed from 3 upon dephosphorylation by ALP): limited self-assembling ability

- 6 remaining in HS-5 lysate ([2]; from 200 μM of 5, after 2 h of incubation): about 20%
- 6 remaining in HS-5 lysate ([2]; from 200 μM of 5, after 4 hours incubation): 6.01%
- critical micelle concentration (CMC) [3]: 8.1 µM
Molecule: CC(C)C[C@H](NC(=O)CCNc1ccc([N+](=O)[O-])c2nonc12)C(=O)N[C@@H](CC(C)C)C(=O)N[C@@H](CC(C)C)C(=O)N[C@@H](CC(C)C)C(=O)N[C@@H](Cc1ccc(O)cc1)C(=O)O [compound 6, NBD-βA-LLLLY] ({NBD-βAla}-LLLLY-OH)

Molecule: CC(C)C[C@H](NC(=O)[C@H](CC(C)C)NC(=O)[C@H](Cc1ccc(OP(=O)(O)O)cc1)NC(=O)[C@H](CC(C)C)NC(=O)[C@H](CC(C)C)NC(=O)CCNc1ccc([N+](=O)[O-])c2nonc12)C(=O)O [compound 7, NBD-βA-LLpYLL] ({NBD-βAla}-LL[pY]LL-OH)
- cytotoxicity against the iPSCs (iPSCs [4]): hardly exhibit cytotoxicity
- diameters of nanofibers [1]: 6±2 nm
- conversion ratio to dephosphorylated peptide (ALP): 61.5%
- half-life at 400 μM (ALP): 126 min
- half-life at 100 μM (ALP): 127 min
- half-life at 200 μM (ALP): 112 min
- critical micelle concentration (CMC) [3]: 159.9 UM
- CMC of the nanofiber-forming product of dephosphorylation [3]: 87.4 µM
- NBD fluorescence in iPSCs (location of peptide assemblies) (iPSCs [5]): no fluorescence inside the cells

Molecule: CC(C)C[C@@H](NC(=O)CCNc1ccc([N+](=O)[O-])c2nonc12)C(=O)N[C@H](CC(C)C)C(=O)N[C@H](CC(C)C)C(=O)N[C@H](CC(C)C)C(=O)N[C@@H](Cc1ccc(OP(=O)(O)O)cc1)C(=O)O [compound 9, NBD-βA-llllpY] ({NBD-βAla}-[dL][dL][dL][dL][pY]-OH)
- cytotoxicity against the iPSCs (iPSCs [4]): hardly exhibit cytotoxicity
- diameters of nanofibers [1]: 9±2 nm
- conversion ratio to dephosphorylated peptide (ALP): 93.3%
- half-life at 400 μM (ALP): 27 min
- half-life at 100 μM (ALP): 24.6 min
- half-life at 200 μM (ALP): 21.6 min
- critical micelle concentration (CMC) [3]: 146.8 µM
- CMC of the nanofiber-forming product of dephosphorylation [3]: 25.8 µM
- NBD fluorescence in iPSCs (location of peptide assemblies) (iPSCs [5]): most of the cells exhibit no fluorescence inside the cells
